Results on eleven compounds are retold here after patent publication US20240398828A1, “HETERO-ATOM CONTAINING COMPOUNDS AND USES THEREOF” (Kumquat Biosciences Inc., priority 2021, published 2024).

The target of one assay is T1, PTPN2 (i.e., TC-PTP) (Homo sapiens, UniProt P17706).
T1 sequence (P17706 1-415): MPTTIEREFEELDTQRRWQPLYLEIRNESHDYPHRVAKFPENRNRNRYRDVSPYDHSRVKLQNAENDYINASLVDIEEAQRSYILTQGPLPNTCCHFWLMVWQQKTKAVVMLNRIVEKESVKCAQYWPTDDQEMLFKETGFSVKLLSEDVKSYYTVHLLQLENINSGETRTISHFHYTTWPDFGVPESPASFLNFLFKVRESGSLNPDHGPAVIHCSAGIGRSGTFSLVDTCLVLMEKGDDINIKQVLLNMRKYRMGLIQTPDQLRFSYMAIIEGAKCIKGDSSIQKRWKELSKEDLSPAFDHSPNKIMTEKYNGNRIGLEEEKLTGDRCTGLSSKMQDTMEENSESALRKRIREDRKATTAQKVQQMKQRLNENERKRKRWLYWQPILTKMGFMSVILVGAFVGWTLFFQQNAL
Description: Phosphatase activity assay (DiFMUP substrate), PTPN2. The note with it: compounds binned ≤1 uM or >1 uM. The format is biochemical. The procedure, abridged:
(§1)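 Enzyme (e.g. PTPN2 0.025 ng/ul) mixed about 2 min with compound at 10 serial concentrations in 50 mM HEPES pH 7.5, 150 mM NaCl, 0.5 mM EDTA, 1 mM DTT, 0.001% Tween-20 at room temperature. DiFMUP added at each enzyme's Km (about 45 μM for PTPN2). DiFMU fluorescence (ex 360/em 450 nm) followed 15-30 min; IC50 from 4-parameter fit of rates.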

Another assay addresses T2, PTPN1 (i.e., PTP1B) (Homo sapiens, UniProt P18031).
T2 sequence (P18031 1-435): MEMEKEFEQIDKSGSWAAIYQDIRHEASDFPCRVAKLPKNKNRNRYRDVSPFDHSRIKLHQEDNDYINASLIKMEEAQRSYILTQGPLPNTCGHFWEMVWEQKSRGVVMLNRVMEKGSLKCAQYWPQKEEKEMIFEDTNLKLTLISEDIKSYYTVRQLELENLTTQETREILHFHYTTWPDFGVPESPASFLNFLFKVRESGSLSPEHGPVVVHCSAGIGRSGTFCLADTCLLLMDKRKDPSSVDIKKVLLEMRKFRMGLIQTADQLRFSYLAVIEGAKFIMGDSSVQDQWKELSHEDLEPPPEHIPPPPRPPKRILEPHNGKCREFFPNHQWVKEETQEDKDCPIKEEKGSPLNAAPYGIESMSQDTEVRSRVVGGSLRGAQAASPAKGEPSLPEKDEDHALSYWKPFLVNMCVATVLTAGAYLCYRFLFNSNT
The assay can be described thus: Phosphatase activity assay (DiFMUP substrate), PTP1B. The format is biochemical. The note with it: compounds binned ≤1 uM or >1 uM. Summed up: as §1

The IC50 is the concentration that inhibits the measured activity by half. For the compound `CC(C)CCCc1cc(-c2ccc(O)c(N3CC(=O)NS3(=O)=O)c2F)[nH]n1` [Compound 290, 5-(2-fluoro-6-hydroxy-3-(3-(4-methylpentyl)-1H-pyrazol-5-yl)phenyl)-1,2,5-thiadiazolidin-3-one 1,1-dioxide], the concentration for half-maximal inhibition (IC50) on PTPN2 (i.e., TC-PTP) was not above 1 µM; on PTPN1 (i.e., PTP1B) it was not above 1 µM.
Turning to `O=C1CN(c2c(O)ccc(-c3cn(C4CCOCC4)cn3)c2F)S(=O)(=O)N1` [Compound 328, 5-(2-fluoro-6-hydroxy-3-(1-(tetrahydro-2H-pyran-4-yl)-1H-imidazol-4-yl)phenyl)-1,2,5-thiadiazolidin-3-one 1,1-dioxide], the IC50 on PTPN2 (i.e., TC-PTP) is not above 1 µM; on PTPN1 (i.e., PTP1B), not above 1 µM.
`O=C1CN(c2c(O)ccc(-c3cn(CCC(F)F)nc3F)c2F)S(=O)(=O)N1` [Compound 530, 5-(3-(1-(3,3-difluoropropyl)-3-fluoro-1H-pyrazol-4-yl)-2-fluoro-6-hydroxyphenyl)-1,2,5-thiadiazolidin-3-one 1,1-dioxide]: the IC50 is not above 1 µM at PTPN2 (i.e., TC-PTP) and not above 1 µM at PTPN1 (i.e., PTP1B).
In the case of `O=C1CN(c2c(O)ccc(-c3cnc(C4CC4)[nH]3)c2F)S(=O)(=O)N1` [Compound 406, 5-(3-(2-cyclopropyl-1H-imidazol-5-yl)-2-fluoro-6-hydroxyphenyl)-1,2,5-thiadiazolidin-3-one 1,1-dioxide], the IC50 was not above 1 µM at PTPN2 (i.e., TC-PTP) and not above 1 µM on PTPN1 (i.e., PTP1B).
`O=C1CN(c2c(O)ccc(-c3cn(C4CC4(F)F)[nH]c3=O)c2F)S(=O)(=O)N1` (stereo not shown) [Compound 500, 5-(3-(1-(2,2-difluorocyclopropyl)-3-oxo-2,3-dihydro-1H-pyrazol-4-yl)-2-fluoro-6-hydroxyphenyl)-1,2,5-thiadiazolidin-3-one 1,1-dioxide]: the concentration for half-maximal inhibition (IC50) is not above 1 µM on PTPN2 (i.e., TC-PTP) and not above 1 µM at PTPN1 (i.e., PTP1B).
For `O=C1CN(c2c(O)ccc(-c3cnn(C4CCCOC4)c3)c2F)S(=O)(=O)N1` (stereo not shown) [Compound 351, 5-(2-fluoro-6-hydroxy-3-(1-(tetrahydro-2H-pyran-3-yl)-1H-pyrazol-4-yl)phenyl)-1,2,5-thiadiazolidin-3-one 1,1-dioxide], the IC50 at PTPN2 (i.e., TC-PTP) was not above 1 µM; on PTPN1 (i.e., PTP1B) it was not above 1 µM.
As to `CC1(n2cc(-c3ccc(O)c(N4CC(=O)NS4(=O)=O)c3F)cn2)CC1` [Compound 324, 5-(2-fluoro-6-hydroxy-3-(1-(1-methylcyclopropyl)-1H-pyrazol-4-yl)phenyl)-1,2,5-thiadiazolidin-3-one 1,1-dioxide], the IC50 at PTPN2 (i.e., TC-PTP) is not above 1 µM; at PTPN1 (i.e., PTP1B), not above 1 µM.
As to `CC(C)c1cc(-c2ccc(O)c(N3CC(=O)NS3(=O)=O)c2F)nn1C` [Compound 447, 5-(2-fluoro-6-hydroxy-3-(5-isopropyl-1-methyl-1H-pyrazol-3-yl)phenyl)-1,2,5-thiadiazolidin-3-one 1,1-dioxide], the IC50 on PTPN2 (i.e., TC-PTP) was not above 1 µM; on PTPN1 (i.e., PTP1B) it was not above 1 µM.
Turning to `Cn1cc(-c2ccc(O)c(N3CC(=O)NS3(=O)=O)c2F)cn1` [Compound 227, 5-(2-fluoro-6-hydroxy-3-(1-methyl-1H-pyrazol-4-yl)phenyl)-1,2,5-thiadiazolidin-3-one 1,1-dioxide], the IC50 at PTPN2 (i.e., TC-PTP) was not above 1 µM; on PTPN1 (i.e., PTP1B), not above 1 µM.
For `O=C1CN(c2c(O)ccc(-c3cn(CC4CCCCC4)nc3F)c2F)S(=O)(=O)N1` [Compound 385, 5-(3-(1-(cyclohexylmethyl)-3-fluoro-1H-pyrazol-4-yl)-2-fluoro-6-hydroxyphenyl)-1,2,5-thiadiazolidin-3-one 1,1-dioxide], the IC50 at PTPN2 (i.e., TC-PTP) was not above 1 µM; at PTPN1 (i.e., PTP1B), not above 1 µM.
As to `N#CCn1cc(-c2ccc(O)c(N3CC(=O)NS3(=O)=O)c2F)cn1` [Compound 130, 2-(4-(3-(1,1-dioxido-4-oxo-1,2,5-thiadiazolidin-2-yl)-2-fluoro-4-hydroxyphenyl)-1H-pyrazol-1-yl)acetonitrile], the IC50 on PTPN2 (i.e., TC-PTP) was not above 1 µM; on PTPN1 (i.e., PTP1B), not above 1 µM.
